Here are results for five compounds from US5412095A, “Terazosin monohydrochloride and processes and intermediate for its production” (Abbott Laboratories, priority 1994, dated 1995).

Molecules are shown by their SMILES. Structures can show the parent of a compound that is named as a salt. Where two headings read alike, the source gives them in different places.

Data set [1] can be described thus: Solubility/dissolution of forms of terazosin monohydrochloride in distilled water (shaken, 0.45 µm filtered, UV at 254 nm). In kind it is physicochemical. As to conditions: for solubility at 0.5 min / solubility at 1 min / solubility at 2 min / solubility at 4 min / Solubility of Various Forms of Terazosin Monohydrochloride: distilled water, 2 g in 5 mL; for solubility at 0.5 min / solubility at 1 min / solubility at 2 min / solubility at 4 min: read-out: Solubility of Various Forms of Terazosin Monohydrochloride; for dissolution in water (in words): qualitative. On the procedure: The data in Table 1 were collected, for each data point, by weighing 2 g samples of terazosin monohydrochloride dihydrate and each of Forms I, II and II of the non-solvated monohydrochloride separately into 50 mL centrifuge tubes. Five mL of distilled water were added to each tube and the tubes shaken for the times indicated and then rapidly filtered through a 0.45 μu nylon membrane filter. The resulting flitrates were serially diluted with water 2 to […], 5 to 50, 5 to 50 and 5 to 100 mL and the ultraviolet absorption maximum at 254 nm measured. The concentrations of the dissolved terazosin were then calculated from the absorption data using dam from a series of standard concentrations.

Data set [2] is described as follows: Acidic cleavage of terazosin in aqueous acid. The note with it: aqueous medium, cleaves into 4-amino-6,7-dimethoxy-2-piperazinylquinazoline and 2-furoic acid. The format is physicochemical. On the procedure:
In the particular case of terazosin, when the parent compound or its hydrochloride salt is in contact for extended periods with aqueous acid, it undergoes an undesirable side reaction which cleaves the compound into its constituent parts: [drawing 2]
Moreover, if the hydrochloride salt is prepared by lyophilization of the reaction mixture of terazosin free base and hydrochloric acid, unless care is taken to remove any excess acid present in the isolated salt, the solid may also contain small amounts of acid which causes degradative cleavage over time.

For data set [3] the following is noted: free base form; cited from earlier work.

In general, solubility refers to the concentration that dissolves in the medium under given conditions.

`COc1cc2nc(N3CCN(C(=O)C4CCCO4)CC3)nc(N)c2cc1OC.Cl.O.O` (stereo not shown) [Dihydrate, 1-(4-Amino-6,7-dimethoxy-2-quinazolinyl)-4-(tetrahydro-2-furoyl)piperazine monohydrochloride dihydrate]: in data set [1] (0.5 minutes), the solubility at 0.5 min was found to be 29 mg/mL. Also, in data set [1] (1 minute), the solubility at 1 min turned out to be 30 mg/mL. Further, the solubility at 2 min in data set [1] (2 minutes) is 27 mg/mL. Also, in data set [1] (4 minutes), the solubility at 4 min came out at 26 mg/mL. For the same compound, in data set [1] (water, rapidly reached, read-out: limit of solubility), the solubility is approximately 30 mg/mL.

On to `COc1cc2nc(N3CCN(C(=O)C4CCCO4)CC3)nc(N)c2cc1OC` (stereo not shown) [Form I, 1-(4-amino-6,7-dimethoxy-2-quinazolinyl)-4-(tetrahydro-2-furoyl)piperazinemonohydrochloride], for which the solubility at 0.5 min in data set [1] (water, 0.5 minutes) came out at 273 mg/mL. In data set [1] (water, 1 minute), the solubility at 1 min is 283 mg/mL. In data set [1] (water, 2 minutes), the solubility at 2 min was 289 mg/mL. In addition, the solubility at 4 min in data set [1] (water, 4 minutes) turned out to be 276 mg/mL.

`COc1cc2nc(N3CCN(C(=O)C4CCCO4)CC3)nc(N)c2cc1OC` (stereo not shown) [Form II, 1-(4-amino-6,7-dimethoxy-2-quinazolinyl)-4-(tetrahydro-2-furoyl)piperazinemonohydrochloride]: the “Solubility of Various Forms of Terazosin Monohydrochloride” value is listed as 280 mg/mL in data set [1] (0.5 minutes); 253 mg/mL in data set [1] (1 minute, 1 min); 311 mg/mL in data set [1] (2 minutes); 323 mg/mL in data set [1] (4 minutes).

`COc1cc2nc(N3CCN(C(=O)C4CCCO4)CC3)nc(N)c2cc1OC` (stereo not shown) [Form III, 1-(4-amino-6,7-dimethoxy-2-quinazolinyl)-4-(tetrahydro-2-furoyl)piperazinemonohydrochloride]: the “Solubility of Various Forms of Terazosin Monohydrochloride” value in data set [1] (0.5 minutes) came out at 235 mg/mL; in data set [1] (1 minute, 1 min) it was 237 mg/mL; in data set [1] (2 minutes), 269 mg/mL; in data set [1] (4 minutes), 261 mg/mL. In data set [1] (water, multiple of dihydrate solubility), the “solubility rapidly achieved relative to the dihydrate limit (about 30 mg/mL)” value is on record as “about ten times”. Moreover, the “dissolution in water (in words)” value is “rapidly dissolves in water” in data set [1] (water) and “dissolves in water much more rapidly than the dihydrate form” in data set [1] (water, listed as terazosin monohydrochloride Form III).

For the compound `COc1cc2nc(N3CCN(C(=O)C4CCCO4)CC3)nc(N)c2cc1OC` (stereo not shown) [terazosin, 1-(4-amino-6,7-dimethoxy-2-quinazolinyl)-4-(tetrahydro-2furoyl)piperazine], the “acidic cleavage (stability)” value in data set [2] is given as “occurs rapidly in aqueous medium”. The “solubility for oral administration (in words)” value in data set [3] is “does not possess the requisite solubility for convenient oral administration”.
